The target in test [1] is N-terminal active peptide segment (MI-N899) of POLQ with ATPase activity (Homo sapiens (Human), UniProt O75417). Put plainly: POLQ enzyme activity inhibition experiment (ATPase, NADH-coupled, OD 340 nm). The note with it: 100 nM POLQ (N), 100 μM ATP, 300 nM dT50. It counts as biochemical.
In another test the test system is DLD-1 parental cells. Put plainly: Inhibition of tumour cell proliferation, 7 days, CTG. In kind it is cell-based. The conditions noted are these: Homo sapiens, read-out: DLD-1 parental cell IC50. As for the experimental part: (§1) Brief introduction to the experimental principle: The compounds were co-incubated with tumour cells for 7 days, and then a CTG kit from Promega Inc was used to quantify ATP in viable cells, thus reflecting the effect of the compounds on tumour cell proliferation.
(§2) Experimental method: DLD-1 parental cells or DLD-1 BRCA2 (−/−) cells were diluted with RPMI 1640 medium containing 10% FBS, and then added to a 96-well plate (90 μL/well), with the number of cells being 600 cells/well or 1200 cells/well, respectively, and cultured overnight in a 37° C., 5% CO2 incubator. The compounds to be tested were diluted to different concentrations in dimethyl sulfoxide (DMSO), and then added to a 96-well plate. The final concentration of the compounds in the reaction system started from 25 μM, and was subjected to 4-fold gradient dilution. The concentration range of the compounds was from 25 μM to 0.0004 μM, and the final concentration of DMSO was 0.25% v/v. After 7 days of incubation, 50 μL/well CTG was added, and the mixture was incubated at room temperature for 10 minutes. Subsequently, the luminescence (Lum) signal value was read with an Envision microplate reader, and the inhibition rate and half inhibitory concentration (IC50) were calculated.
(§3) The inhibition rate was calculated, and XLfit software was used to perform fitting to obtain IC50 of the compounds.
(§4) In the experiment, a blank well and a DMSO well were set up, respectively.
(§5) Inhibition rate=100*(Lummax−Lumcompound)/(Lummax−Lummin)%, • where Lummax refers to the luminescence signal value of the well containing cells and 0.25% v/v DMSO; Lumcompound refers to the luminescence signal value of the well containing the compound and cells; and Lummin refers to the luminescence signal value of the well containing the medium and 0.25% v/v DMSO.

For the next test, the system named is DLD-1 BRCA2 (−/−) cells. Described as above. It counts as cell-based. The note with it: Homo sapiens, read-out: DLD-1 BRCA2 (−/−) IC50. As for the experimental part: as §1, §2, §3, §4, §5
Setting [2] is: 168 h, DLD-1 parental cells, 7 days of incubation, CTG.
The mark [3] stands for this setting: 168 h, DLD-1 BRCA2 (−/−) cells, 7 days of incubation, CTG.

Like-named read-outs stand apart in the source and are kept apart here. Bounds are passed on as bounds.

Sequence of N-terminal active peptide segment (MI-N899) of POLQ with ATPase activity (O75417 1-899 limits assumed): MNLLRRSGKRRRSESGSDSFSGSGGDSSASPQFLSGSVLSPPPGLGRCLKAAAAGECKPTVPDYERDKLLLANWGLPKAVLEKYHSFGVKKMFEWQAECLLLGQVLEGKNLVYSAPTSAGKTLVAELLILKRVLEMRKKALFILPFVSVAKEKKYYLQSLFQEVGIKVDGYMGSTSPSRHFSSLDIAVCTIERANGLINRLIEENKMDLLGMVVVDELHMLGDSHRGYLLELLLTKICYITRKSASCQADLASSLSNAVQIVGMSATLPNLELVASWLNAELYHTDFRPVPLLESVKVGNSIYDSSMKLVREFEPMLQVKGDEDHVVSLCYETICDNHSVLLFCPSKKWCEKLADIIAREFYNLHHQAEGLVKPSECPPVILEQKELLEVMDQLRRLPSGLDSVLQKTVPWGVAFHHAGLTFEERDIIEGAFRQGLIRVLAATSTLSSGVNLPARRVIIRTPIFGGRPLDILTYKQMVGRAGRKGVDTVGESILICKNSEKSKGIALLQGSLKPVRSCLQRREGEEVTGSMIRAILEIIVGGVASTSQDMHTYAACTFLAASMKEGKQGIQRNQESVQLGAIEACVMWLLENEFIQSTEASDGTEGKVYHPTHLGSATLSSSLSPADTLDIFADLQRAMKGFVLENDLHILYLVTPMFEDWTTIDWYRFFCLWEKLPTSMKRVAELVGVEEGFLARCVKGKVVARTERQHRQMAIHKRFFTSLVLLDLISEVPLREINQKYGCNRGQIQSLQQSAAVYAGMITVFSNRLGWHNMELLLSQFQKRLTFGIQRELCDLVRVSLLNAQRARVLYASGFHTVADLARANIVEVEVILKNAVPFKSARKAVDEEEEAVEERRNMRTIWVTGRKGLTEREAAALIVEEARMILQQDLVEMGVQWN

For the compound `COc1ccc(Cl)cc1-c1cc(C)ncc1C(=O)Nc1nc2ncc(-c3ccc(C4CC4)cc3)nc2s1` [Compound 79, 4-(5-chloro-2-methoxyphenyl)-N-(6-(4-cyclopropylphenyl)thiazolo[4,5-b]pyrazin-2-yl)-6-methylpyridine-3-carboxamide], the IC50 in test [1] is under 100 nM; with DLD-1 parental cells (setting [2]), over 10 µM; with DLD-1 BRCA2 (−/−) cells (setting [3]), under 200 nM.
The corresponding values for `COc1cnc(C)cc1-c1cc(C)ncc1C(=O)Nc1nc2ncc(-c3ccc(C#N)cc3)nc2s1` [Compound 21, N-(6-(4-cyanophenyl)thiazolo[4,5-b]pyrazin-2-yl)-5′-methoxy-2′,6-dimethyl-[4,4′-bipyridine]-3-carboxamide] are under 100 nM, over 10 µM and under 200 nM.
The corresponding values for `COc1ccc(C#N)cc1-c1cc(C)ncc1C(=O)Nc1nc2ncc(-c3ccc(Cl)cc3)nc2s1` [Compound 46, N-(6-(4-chlorophenyl)thiazolo[4,5-b]pyrazin-2-yl)-4-(5-cyano-2-methoxyphenyl)-6-methylpyridine-3-carboxamide] are under 100 nM, over 10 µM and under 200 nM.
Take `C#Cc1ccccc1-c1cnccc1C(=O)Nc1nc2ncc(-c3ccc(C#N)cc3)nc2s1` [Compound 30, N-(6-(4-cyanophenyl)thiazolo[4,5-b]pyrazin-2-yl)-3-(2-ethynylphenyl)pyridine-4-carboxamide]: the IC50 in test [1] was under 100 nM; in the test with DLD-1 parental cells (DLD-1, 168 h), over 10 µM; in the test on DLD-1 BRCA2 (−/−) cells (DLD-1, 168 h), under 200 nM.
For `Cc1cc(-c2cc(C)ncc2C(=O)Nc2nc3ncc(-c4ccc(C#N)cc4)nc3s2)c(OC(F)F)cn1` [Compound 74, N-(6-(4-cyanophenyl)thiazolo[4,5-b]pyrazin-2-yl)-5′-(difluoromethoxy)-2′,6-dimethyl-[4,4′-bipyridine]-3-carboxamide], the IC50 in test [1] was under 100 nM; in the test on DLD-1 parental cells (setting [2]), over 10 µM; in the test with DLD-1 BRCA2 (−/−) cells (setting [3]), under 200 nM.
As for `COc1ccccc1-c1cnccc1C(=O)Nc1nc2ncc(-c3ccc(C#N)cc3)nc2s1` [Compound 9, N-(6-(4-cyanophenyl)thiazolo[4,5-b]pyrazin-2-yl)-3-(2-methoxyphenyl)pyridine-4-carboxamide], the IC50 is under 100 nM in test [1], over 10 µM with DLD-1 parental cells (setting [2]) and under 200 nM in the test with DLD-1 BRCA2 (−/−) cells (setting [3]).
Regarding `COc1ccc(Cl)cc1-c1cc(C)ccc1C(=O)Nc1nc2ncc(-c3ccc(C#N)cc3)nc2s1` [Compound 93, 5′-chloro-N-(6-(4-cyanophenyl)thiazolo[4,5-b]pyrazin-2-yl)-2′-methoxy-5-methyl-[1,1′-biphenyl]-2-carboxamide], the IC50 is under 100 nM in test [1], over 10 µM with DLD-1 parental cells (setting [2]) and under 200 nM in the test with DLD-1 BRCA2 (−/−) cells (setting [3]).
In the same order, the values of `COc1cnc(C)cc1-c1cc(C)ncc1C(=O)Nc1nc2ncc(-c3ccc(C4CC4)cn3)nc2s1` [Compound 24, N-(6-(5-cyclopropylpyridin-2-yl)thiazolo[4,5-b]pyrazin-2-yl)-5′-methoxy-2′,6-dimethyl-[4,4′-bipyridine]-3-carboxamide] are under 100 nM, over 10 µM and under 200 nM.
The corresponding values for `Cc1cc(-c2cc(Cl)ccc2Cl)c(C(=O)Nc2nc3ncc(-c4ccc(C#N)cc4)nc3s2)cn1` [Compound 87, N-(6-(4-cyanophenyl)thiazolo[4,5-b]pyrazin-2-yl)-4-(2,5-dichlorophenyl)-6-methylpyridine-3-carboxamide] are under 100 nM, over 10 µM and under 200 nM.
In the same order, the values of `COc1cnc(C#N)cc1-c1cc(C)ncc1C(=O)Nc1nc2ncc(-c3ccc(Cl)cc3)nc2s1` [Compound 63, N-(6-(4-chlorophenyl)thiazolo[4,5-b]pyrazin-2-yl)-2′-cyano-5′-methoxy-6-methyl-[4,4′-bipyridine]-3-carboxamide] are under 100 nM, over 10 µM and 200 to 500 nM.
Turning to `COc1ccc(C#N)cc1-c1cc(C)ncc1C(=O)Nc1nc2ncc(-c3ccc(Cl)cn3)nc2s1` [Compound 62, N-(6-(5-chloropyridin-2-yl)thiazolo[4,5-b]pyrazin-2-yl)-4-(5-cyano-2-methoxyphenyl)-6-methylpyridine-3-carboxamide], the IC50 was under 100 nM in test [1], over 10 µM in the test on DLD-1 parental cells (setting [2]) and under 200 nM with DLD-1 BRCA2 (−/−) cells (setting [3]).
Turning to `COc1cnc(C2CC2)cc1-c1cc(C)ncc1C(=O)Nc1nc2ncc(-c3ccc(C4CC4)cc3)nc2s1` [Compound 83, 2′-cyclopropyl-N-(6-(4-cyclopropylphenyl)thiazolo[4,5-b]pyrazin-2-yl)-5′-methoxy-6-methyl-[4,4′-bipyridine]-3-carboxamide], the IC50 in test [1] was under 100 nM; in the test on DLD-1 parental cells (setting [2]) it was over 10 µM; in the test with DLD-1 BRCA2 (−/−) cells (setting [3]) it was under 200 nM.
Turning to `COc1ccc(Cl)cc1-c1cc(C)ncc1C(=O)Nc1nc2ncc(-c3ccc(C4CC4)cn3)nc2s1` [Compound 77, 4-(5-chloro-2-methoxyphenyl)-N-[6-(5-cyclopropylpyridin-2-yl)thiazolo[4,5-b]pyrazin-2-yl]-6-methylpyridine-3-carboxamide], the IC50 is under 100 nM in test [1], over 10 µM in the test on DLD-1 parental cells (setting [2]) and under 200 nM in the test on DLD-1 BRCA2 (−/−) cells (setting [3]).
In the same order, the values of `COc1ccc(C(F)(F)F)cc1-c1cc(C)ncc1C(=O)Nc1nc2ncc(-c3ccc(C#N)cc3)nc2s1` [Compound 86, N-(6-(4-cyanophenyl)thiazolo[4,5-b]pyrazin-2-yl)-4-(2-methoxy-5-(trifluoromethyl)phenyl)-6-methylpyridine-3-carboxamide] are under 100 nM, over 10 µM and under 200 nM.
The corresponding values for `COc1cnc(Cl)cc1-c1cc(C)ncc1C(=O)Nc1nc2ncc(-c3ccc(C#N)cn3)nc2s1` [Compound 61, N-(6-(5-cyanopyridin-2-yl)thiazolo[4,5-b]pyrazin-2-yl)-2′-chloro-5′-methoxy-6-methyl-[4,4-bipyridine]-3-carboxamide] are under 100 nM, over 10 µM and under 200 nM.
In the same order, the values of `COc1cnc(C)cc1-c1cc(C)ncc1C(=O)Nc1nc2ncc(-c3ccc(C(F)(F)F)cn3)nc2s1` [Compound 27, 5′-methoxy-2′,6-dimethyl-N-(6-(5-(trifluoromethyl)pyridin-2-yl)thiazolo[4,5-b]pyrazin-2-yl)-[4,4′-bipyridine]-3-carboxamide] are under 100 nM, over 10 µM and under 200 nM.
Consider `C#Cc1ccccc1-c1cc(C)ncc1C(=O)Nc1nc2ncc(-c3ccc(C#N)cc3)nc2s1` [Compound 42, N-(6-(4-cyanophenyl)thiazolo[4,5-b]pyrazin-2-yl)-4-(2-ethynylphenyl)-6-methylpyridine-3-carboxamide], for which the IC50 in test [1] was under 100 nM; in the test with DLD-1 parental cells (setting [2]), over 10 µM; in the test with DLD-1 BRCA2 (−/−) cells (setting [3]), 200 to 500 nM.
With `COc1cnc(C(F)(F)F)cc1-c1cc(C)ncc1C(=O)Nc1nc2ncc(-c3ccc(C#N)cc3)nc2s1` [Compound 73, N-(6-(4-cyanophenyl)thiazolo[4,5-b]pyrazin-2-yl)-5′-methoxy-6-methyl-2′-(trifluoromethyl)-[4,4′-bipyridine]-3-carboxamide], the IC50 is under 100 nM in test [1], over 10 µM with DLD-1 parental cells (setting [2]) and under 200 nM in the test with DLD-1 BRCA2 (−/−) cells (setting [3]).
In the same order, the values of `COc1cnc(Cl)cc1-c1cc(C)ncc1C(=O)Nc1nc2ncc(-c3ccc(C#N)cc3)nc2s1` [Compound 20, 2′-chloro-N-(6-(4-cyanophenyl)thiazolo[4,5-b]pyrazin-2-yl)-5′-methoxy-6-methyl-[4,4′-bipyridine]-3-carboxamide] are under 100 nM, over 10 µM and under 200 nM.
The corresponding values for `COc1ccc(C#N)cc1-c1cc(C#N)ncc1C(=O)Nc1nc2ncc(-c3ccc(C#N)cc3)nc2s1` [Compound 33, 6-cyano-4-(5-cyano-2-methoxyphenyl)-N-(6-(4-cyanophenyl)thiazolo[4,5-b]pyrazin-2-yl)pyridine-3-carboxamide] are under 100 nM, over 10 µM and under 200 nM.
The corresponding values for `COc1cnc(C)cc1-c1cc(C)ccc1C(=O)Nc1nc2ncc(-c3ccc(C#N)cc3)nc2s1` [Compound 92, N-(6-(4-cyanophenyl)thiazolo[4,5-b]pyrazin-2-yl)-2-(5-methoxy-2-methylpyridine-4-yl)-4-methylbenzamide] are under 100 nM, over 10 µM and under 200 nM.

The values are drawn from patent US20250122221A1 (NANJING ZAIMING PHARMACEUTICAL CO., LTD., priority 2022, published 2025).
